For 8 compounds, IC50, solubility and MIC results are on record in ChEMBL document CHEMBL1155987, “2,3,4,5-Tetrahydro-1H-pyrido[2,3-b and e][1,4]diazepines as inhibitors of the bacterial enoyl ACP reductase, FabI” (Bioorg Med Chem Lett, 2009).

Broadly, the IC50 is the concentration that inhibits the measured activity by half. Read a high IC50 as weaker potency. The solubility is how much of the substance goes into solution per volume.

SMILES strings stand for the structures. ≈ marks a conversion by molar mass, not a printed value.

One data set concerns the target T1, Enoyl-[acyl-carrier-protein] reductase [NADH] FabI (Escherichia coli K-12, UniProt P0AEK4).
T1 sequence (P0AEK4 whole entry): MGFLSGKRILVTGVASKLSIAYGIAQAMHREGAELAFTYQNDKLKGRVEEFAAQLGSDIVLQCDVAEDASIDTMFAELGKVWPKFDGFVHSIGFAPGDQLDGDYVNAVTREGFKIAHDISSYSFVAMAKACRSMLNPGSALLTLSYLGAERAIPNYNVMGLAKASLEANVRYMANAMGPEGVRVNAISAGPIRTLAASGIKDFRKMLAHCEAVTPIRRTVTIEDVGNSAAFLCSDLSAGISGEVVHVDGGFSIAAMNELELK
Assay: not given
Conditions: not given
In turn, `CN(Cc1cc2ccccc2n1C)C(=O)/C=C/c1cnc2c(c1)NCCC(=O)N2` gave a 50% inhibitory concentration (IC50) of 136 nM.

Compound `Cc1c(CN(C)C(=O)/C=C/c2cnc3c(c2)CCC(=O)N3)sc2ccccc12` displayed an IC50 of 64 nM.

In turn, `Cc1c(CN(C)C(=O)/C=C/c2cnc3c(c2)CNC(=O)CN3)oc2ccccc12` came in with an IC50 of 39 nM.

`Cc1c(CN(C)C(=O)/C=C/c2cnc3c(c2)NCCC(=O)N3)oc2ccccc12` came in with an IC50 of 25 nM.

In turn, `Cc1c(CN(C)C(=O)/C=C/c2cnc3c(c2)CNCCCN3)oc2ccccc12` returned a 50% inhibitory concentration (IC50) of 16 nM.

In turn, `Cc1c(CN(C)C(=O)/C=C/c2cnc3c(c2)NCCC(=O)N3)[nH]c2ccccc12` gave an IC50 of 840 nM.

With `CN(Cc1cc2ccccc2n1C)C(=O)/C=C/c1cnc2c(c1)CCC(=O)N2`, inhibition was half-maximal at 150 nM (IC50).

Tested on in another data set: not listed separately
Nature of the data set: physchem. The following applies: aqueous, pH 4.
Description: Aqueous solubility at pH 4.0
As to `CN1CC(=O)Nc2ncc(/C=C/C(=O)N(C)Cc3cc4ccccc4n3C)cc2C1`, the solubility was 73 µg/mL (≈ 181 µM).

Consider `CN(Cc1cc2ccccc2n1C)C(=O)/C=C/c1cnc2c(c1)NCCC(=O)N2`, for which the concentration in solution (solubility) was 25 µg/mL (≈ 64.2 µM).

For the compound `Cc1c(CN(C)C(=O)/C=C/c2cnc3c(c2)CCC(=O)N3)sc2ccccc12`, the concentration in solution (solubility) came to 0.2 µg/mL (≈ 0.511 µM).

Compound `Cc1c(CN(C)C(=O)/C=C/c2cnc3c(c2)NCCC(=O)N3)oc2ccccc12` registered a solubility of 1.5 µg/mL (≈ 3.84 µM).

Compound `Cc1c(CN(C)C(=O)/C=C/c2cnc3c(c2)CNCCCN3)oc2ccccc12` showed a solubility of 1400 µg/mL (≈ 3590 µM).

`Cc1c(CN(C)C(=O)/C=C/c2cnc3c(c2)NCCC(=O)N3)[nH]c2ccccc12` had a solubility of 39 µg/mL (≈ 100 µM).

For the compound `CN(Cc1cc2ccccc2n1C)C(=O)/C=C/c1cnc2c(c1)CCC(=O)N2`, the solubility is 6.2 µg/mL (≈ 16.6 µM).

Tested on in another data set: not listed separately
Nature of the data set: physchem. The conditions noted are these: aqueous, pH 7.4.
Description: Aqueous solubility at pH 7.4
`CN1CC(=O)Nc2ncc(/C=C/C(=O)N(C)Cc3cc4ccccc4n3C)cc2C1` returned a solubility of 9.7 µg/mL (≈ 24 µM).

`CN(Cc1cc2ccccc2n1C)C(=O)/C=C/c1cnc2c(c1)NCCC(=O)N2` showed a solubility of 33 µg/mL (≈ 84.7 µM).

The compound `Cc1c(CN(C)C(=O)/C=C/c2cnc3c(c2)CCC(=O)N3)sc2ccccc12` returned a solubility of 0.3 µg/mL (≈ 0.766 µM).

On to `Cc1c(CN(C)C(=O)/C=C/c2cnc3c(c2)NCCC(=O)N3)oc2ccccc12`, for which the solubility came out at 1.7 µg/mL (≈ 4.35 µM).

On to `Cc1c(CN(C)C(=O)/C=C/c2cnc3c(c2)CNCCCN3)oc2ccccc12`, for which the solubility amounted to 210 µg/mL (≈ 538 µM).

Regarding `Cc1c(CN(C)C(=O)/C=C/c2cnc3c(c2)NCCC(=O)N3)[nH]c2ccccc12`, the concentration in solution (solubility) was 37 µg/mL (≈ 95 µM).

Take `CN(Cc1cc2ccccc2n1C)C(=O)/C=C/c1cnc2c(c1)CCC(=O)N2`: the solubility was 5.6 µg/mL (≈ 15 µM).

In another data set the test system is Staphylococcus aureus. The data set can be described thus: microbe, parasite or virus in culture. The conditions noted are these: 29213.
Description: Antibacterial activity against Staphylococcus aureus 29213 by microdilution method
Turning to `CN1CC(=O)Nc2ncc(/C=C/C(=O)N(C)Cc3cc4ccccc4n3C)cc2C1`, the MIC is 4 µg/mL (≈ 9.91 µM).

Compound `CN(Cc1cc2ccccc2n1C)C(=O)/C=C/c1cnc2c(c1)NCCC(=O)N2` registered an MIC of 0.25 µg/mL (≈ 0.642 µM).

Take `Cc1c(CN(C)C(=O)/C=C/c2cnc3c(c2)CCC(=O)N3)sc2ccccc12`: the MIC came to 0.125 µg/mL (≈ 0.319 µM).

Compound `Cc1c(CN(C)C(=O)/C=C/c2cnc3c(c2)CNC(=O)CN3)oc2ccccc12` came in with an MIC of at most 0.063 µg/mL.

On to `Cc1c(CN(C)C(=O)/C=C/c2cnc3c(c2)NCCC(=O)N3)oc2ccccc12`, for which the MIC was at most 0.016 µg/mL.

In the case of `Cc1c(CN(C)C(=O)/C=C/c2cnc3c(c2)CNCCCN3)oc2ccccc12`, the MIC was 0.25 µg/mL (≈ 0.64 µM).

Regarding `Cc1c(CN(C)C(=O)/C=C/c2cnc3c(c2)NCCC(=O)N3)[nH]c2ccccc12`, the MIC amounted to 0.031 µg/mL (≈ 0.0796 µM).

Consider `CN(Cc1cc2ccccc2n1C)C(=O)/C=C/c1cnc2c(c1)CCC(=O)N2`, for which the MIC is at most 0.016 µg/mL.

The next data set deals with Staphylococcus aureus. Nature of the data set: microbe, parasite or virus in culture. The conditions noted are these: 43300.
Description: Antibacterial activity against methicillin-resistant Staphylococcus aureus 43300 by microdilution method
On to `CN1CC(=O)Nc2ncc(/C=C/C(=O)N(C)Cc3cc4ccccc4n3C)cc2C1`, for which the MIC was 0.5 µg/mL (≈ 1.24 µM).

`CN(Cc1cc2ccccc2n1C)C(=O)/C=C/c1cnc2c(c1)NCCC(=O)N2` came in with an MIC of 0.125 µg/mL (≈ 0.321 µM).

Compound `Cc1c(CN(C)C(=O)/C=C/c2cnc3c(c2)CCC(=O)N3)sc2ccccc12` registered an MIC of at most 0.063 µg/mL.

For the compound `Cc1c(CN(C)C(=O)/C=C/c2cnc3c(c2)CNC(=O)CN3)oc2ccccc12`, the MIC was at most 0.063 µg/mL.

For the compound `Cc1c(CN(C)C(=O)/C=C/c2cnc3c(c2)NCCC(=O)N3)oc2ccccc12`, the MIC was at most 0.016 µg/mL.

As to `Cc1c(CN(C)C(=O)/C=C/c2cnc3c(c2)CNCCCN3)oc2ccccc12`, the MIC came to 0.5 µg/mL (≈ 1.28 µM).

For the compound `Cc1c(CN(C)C(=O)/C=C/c2cnc3c(c2)NCCC(=O)N3)[nH]c2ccccc12`, the MIC was found to be 0.063 µg/mL (≈ 0.162 µM).

`CN(Cc1cc2ccccc2n1C)C(=O)/C=C/c1cnc2c(c1)CCC(=O)N2` returned an MIC of 0.031 µg/mL (≈ 0.0828 µM).

The next data set relates to Staphylococcus aureus. Nature of the data set: microbe, parasite or virus in culture. The following applies: 934335.
Description: Antibacterial activity against triclosan-resistant Staphylococcus aureus 934335 by microdilution method
`CN1CC(=O)Nc2ncc(/C=C/C(=O)N(C)Cc3cc4ccccc4n3C)cc2C1` came in with an MIC of 8 µg/mL (≈ 19.8 µM).

On to `CN(Cc1cc2ccccc2n1C)C(=O)/C=C/c1cnc2c(c1)NCCC(=O)N2`, for which the MIC was 1 µg/mL (≈ 2.57 µM).

Regarding `Cc1c(CN(C)C(=O)/C=C/c2cnc3c(c2)CCC(=O)N3)sc2ccccc12`, the MIC was found to be 4 µg/mL (≈ 10.2 µM).

In turn, `Cc1c(CN(C)C(=O)/C=C/c2cnc3c(c2)CNC(=O)CN3)oc2ccccc12` showed an MIC of 4 µg/mL (≈ 10.2 µM).

For `Cc1c(CN(C)C(=O)/C=C/c2cnc3c(c2)NCCC(=O)N3)oc2ccccc12`, the MIC was at most 0.016 µg/mL.

For the compound `Cc1c(CN(C)C(=O)/C=C/c2cnc3c(c2)CNCCCN3)oc2ccccc12`, the MIC was 8 µg/mL (≈ 20.5 µM).

`Cc1c(CN(C)C(=O)/C=C/c2cnc3c(c2)NCCC(=O)N3)[nH]c2ccccc12` gave an MIC of 2 µg/mL (≈ 5.14 µM).

Take `CN(Cc1cc2ccccc2n1C)C(=O)/C=C/c1cnc2c(c1)CCC(=O)N2`: the MIC was 0.5 µg/mL (≈ 1.34 µM).

Another data set deals with Escherichia coli. The data set can be described thus: microbe, parasite or virus in culture.
Conditions: not given
For `CN1CC(=O)Nc2ncc(/C=C/C(=O)N(C)Cc3cc4ccccc4n3C)cc2C1`, the MIC was over 32 µg/mL.

In turn, `CN(Cc1cc2ccccc2n1C)C(=O)/C=C/c1cnc2c(c1)NCCC(=O)N2` yielded an MIC of 1 µg/mL (≈ 2.57 µM).

`Cc1c(CN(C)C(=O)/C=C/c2cnc3c(c2)CCC(=O)N3)sc2ccccc12` yielded an MIC of 4 µg/mL (≈ 10.2 µM).

`Cc1c(CN(C)C(=O)/C=C/c2cnc3c(c2)CNC(=O)CN3)oc2ccccc12` gave an MIC of at most 0.063 µg/mL.

Consider `Cc1c(CN(C)C(=O)/C=C/c2cnc3c(c2)NCCC(=O)N3)oc2ccccc12`, for which the MIC is at most 0.063 µg/mL.

`Cc1c(CN(C)C(=O)/C=C/c2cnc3c(c2)CNCCCN3)oc2ccccc12` gave an MIC of 8 µg/mL (≈ 20.5 µM).

With `Cc1c(CN(C)C(=O)/C=C/c2cnc3c(c2)NCCC(=O)N3)[nH]c2ccccc12`, the MIC stood at 4 µg/mL (≈ 10.3 µM).

Take `CN(Cc1cc2ccccc2n1C)C(=O)/C=C/c1cnc2c(c1)CCC(=O)N2`: the MIC was at most 0.063 µg/mL.
